Assay results reported in patent US20230212146A1, “TRIARYLPYRIDINE COMPOUNDS AND USE THEREOF FOR TREATING CANCER” (INSTITUT NATIONAL DE LA SANTEET DE LA RECHERCHE …, priority 2020, published 2023).

Legend:
[1] = tested on: U2OS expressing Galectin3-mCherry cells; experiment: Lysosomal membrane permeabilization (LMP), quantification of Galectin 3 puncta; format: cell-based, human; settings: 24 h, 2 μM of 1a, 1 μM of 1b, 1 μM of 1c; for percentage of cells with Gal3 puncta: compound alone, without chloroquine; for percentage of Gal3 puncta positive cells: with 25 μM chloroquine
Method: The data are presented as the mean percentage of 15 values from 5 randomly chosen area in each of the three independent experiments. Ordinate: Percentage of cells with Galectin3 puncta.
Lysosomal membrane damage was assessed thanks to U2OS expressing Galectin3-mCherry cells. […] Cells were then washed with PBS, fixed with 4% (v/v) paraformaldehyde for 10 min at room temperature and then nucleic were counterstained for 15 min with Hoechst 33258. Image acquisition was made with a Leica DMI8 epifluorescence microscope, with a ×20 objective (NA 0.40) equipped with a digital CMOS camera (Hamamatsu photonics) and filter bloc for detection of phase contrast and blue (exc: 325-375 nm/em: 435-485 nm) and red (exc: 541-551 nm/em: 565-605 nm) fluorescence. Each image was collected with identical exposure times and scaled equally. Five images were acquired for each condition and then analyzed thanks to ImageJ software (Schneider et al., 2012, 9(7): 671-675) in order to count manually the number of cells, and automatically the number of Galectin3 punctae within each cell by using the “Find Maxima” tool.

[2] = tested on: F21T oligonucleotide (human telomeric intramolecular quadruplex); experiment: FRET melting analysis, G-quadruplex stabilization; format: binding; settings: compounds at 1-10 μM, 0.2 μM F21T, 10 mM KCl, 90 mM LiCl, pH 7.2
Method: Ordinate: melting temperature (Tm) in Celsius scale (° C.). Abscissa (from left to right): (i) Compounds 1a at 10 μM, 5 μM, 2.5 μM, 1 μM; (ii) Compounds 1b at 10 μM, 5 μM, 2.5 μM, 1 μM; (iii) Compounds 1c at 10 μM, 5 μM, 2.5 μM, 1 μM.
FRET melting experiments were conducted using the F21T oligonucleotide.

[3] = tested on: HeLa cells; experiment: MTT cell viability assay; format: cell-based, human; settings: 24 h treatment, mean of 4 independent experiments in quadruplicate
Method: HeLa cells were treated with 1 μM to 10 μM concentrations of compounds 20A (▾), 1a (grey ▴), 1b (●) and 1c (▪) for 24h. Cell viability was assessed by the MMT assay. Plotted are mean±SD of one representative experiment each performed in quadruplicate. IC50 is scored for each compound from 4 independent experiments performed in quadruplicate. Ordinate: Percentage of HeLa cell viability. Abscissa: Concentrations of compounds 20A, 1a, 1b and 1c.
MTT assay was used to monitor cell viability in HeLa cells subjected to different treatments. Briefly, cells were seeded in a 96-well plate (4×10^3 cells/well). After 24 h of treatment of cells with drug, MTT was added to each well to a final concentration of 0.5 mg/ml during 3 h at 37° C. The supernatant of cells was then removed, and 100 μl of DMSO was added per well. The absorbance in each well was measured at 570 nm and 630 nm using a Flexstation 3 microplate reader (Molecular Devices). 4 independent experiences were conducered, each performed in quadruplicate. To determine the IC50 of compounds 20A, 1a, 1b and 1c, a non-linear regression curve was fit using GraphPad Prism software.

SMILES | percentage of cells with Gal3 puncta [1] [%] | percentage of Gal3 puncta positive cells [1] [%] | stabilization of the F21T quadruplex (melting temperature Tm) [2] | IC50 [3] [µM]
CSc1ccc(-c2cc(-c3ccc(-n4cc(CCCN5CCN(C)CC5)nn4)cc3)nc(-c3ccc(-n4cc(CCCN5CCN(C)CC5)nn4)cc3)c2)cc1 [Compound 1b] | 31 | 56 | stabilize an intramolecular quadruplex | 3.15
CSc1ccc(-c2cc(-c3ccc(-n4cc(CCN5CCN(C)CC5)nn4)cc3)nc(-c3ccc(-n4cc(CCN5CCN(C)CC5)nn4)cc3)c2)cc1 [Compound 1c] | 25 | 45 | stabilize an intramolecular quadruplex | 3.62
CSc1ccc(-c2cc(-c3ccc(-n4cc(CCCN5CCCC5)nn4)cc3)nc(-c3ccc(-n4cc(CCCN5CCCC5)nn4)cc3)c2)cc1 [Compound 1a] | 26 | 57 | stabilize an intramolecular quadruplex | 4.34
